Laboratory results taken from ChEMBL document CHEMBL5050848, “Kif18a inhibitors” (2020).

target: T1, Kinesin-like protein KIF18A (Homo sapiens, UniProt Q8NI77); experiment: Inhibition of recombinant His-tagged human KIF18A (1 to 467 residues) expressed in baculovirus expression system assessed as inhibition of microtubule-stimulated ATPase activity preincubated for 15 mins followed by ATP addition and further incubated for 15 mins and measured after 40 mins by ADP-Glo reagent based assay
T1 sequence (Q8NI77 whole entry): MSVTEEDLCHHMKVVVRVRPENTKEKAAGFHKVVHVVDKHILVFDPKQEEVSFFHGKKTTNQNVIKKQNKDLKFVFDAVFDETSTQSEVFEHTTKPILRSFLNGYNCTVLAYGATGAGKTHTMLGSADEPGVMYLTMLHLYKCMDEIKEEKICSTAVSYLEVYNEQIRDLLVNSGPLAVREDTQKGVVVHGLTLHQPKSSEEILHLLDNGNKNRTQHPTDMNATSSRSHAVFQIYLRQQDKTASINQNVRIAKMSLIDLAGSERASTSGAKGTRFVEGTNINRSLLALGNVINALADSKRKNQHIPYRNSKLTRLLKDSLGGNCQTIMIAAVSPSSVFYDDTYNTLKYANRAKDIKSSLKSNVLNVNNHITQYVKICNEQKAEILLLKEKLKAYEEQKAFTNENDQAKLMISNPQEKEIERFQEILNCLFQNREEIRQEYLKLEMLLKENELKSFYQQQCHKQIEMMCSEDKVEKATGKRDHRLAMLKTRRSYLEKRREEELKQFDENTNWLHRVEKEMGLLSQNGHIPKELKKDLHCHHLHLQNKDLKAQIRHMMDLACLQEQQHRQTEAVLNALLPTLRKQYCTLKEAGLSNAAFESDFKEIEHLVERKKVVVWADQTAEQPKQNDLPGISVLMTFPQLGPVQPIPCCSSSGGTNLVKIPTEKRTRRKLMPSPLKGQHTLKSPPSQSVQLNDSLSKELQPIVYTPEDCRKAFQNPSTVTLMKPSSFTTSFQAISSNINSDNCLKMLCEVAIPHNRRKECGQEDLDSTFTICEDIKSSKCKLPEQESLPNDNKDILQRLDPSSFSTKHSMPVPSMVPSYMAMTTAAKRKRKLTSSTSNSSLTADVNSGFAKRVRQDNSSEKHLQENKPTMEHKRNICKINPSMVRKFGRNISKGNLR

Compound | IC50 [nM]
C[C@@H]1CN(c2cccc(NC(=O)c3ccc(NS(=O)(=O)CC(F)F)cc3N3CCC4(CC3)CC4)n2)CCO1 | 67
Cc1cc(NC(=O)c2ccc(NS(=O)(=O)CCO)cc2N2CCC3(CC2)CC3)nc(N2CC(F)(F)C2)c1 | 24
O=C(Nc1cccc(OC(F)F)n1)c1ccc(NS(=O)(=O)CCO)cc1N1CCC2(CC1)CC2 | 45
